Residues, ends and D or L forms follow the SMILES beside them.
Target: HLA-A*02:01 (Homo sapiens, UniProt P04439, D140Y/D185E/D98H/E176V/E277Q/G131W/G231S/I119V/I121R/I166T/I218V/L300P/L318F/N151K/N90K/P208A/P217A/Q86G/Q94H/R138H/R169H/T345S)
Test: Competition-based peptide binding assay on EBV-LCL48 cells

Compound	IC50 [µM]
CC[C@H](C)[C@H](NC(=O)[C@@H](N)Cc1ccc(O)cc1)C(=O)N[C@@H](Cc1ccc(O)cc1)C(=O)N[C@@H](CC(N)=O)C(=O)N[C@@H](CCCNC(=N)N)C(=O)N[C@@H](CCC(=O)O)C(=O)N[C@@H](CCC(=O)O)C(=O)N[C@@H](Cc1ccccc1)C(=O)N[C@H](C(=O)O)C(C)C (H-YIYNREEFV-OH)	4.9
CC[C@H](C)[C@H](NC(=O)[C@@H](N)Cc1ccc(O)cc1)C(=O)N[C@@H](Cc1ccc(O)cc1)C(=O)N[C@@H](CC(N)=O)C(=O)N[C@@H](CCCNC(=N)N)C(=O)N[C@@H](CCC(=O)O)C(=O)N[C@@H](CCC(=O)O)C(=O)N[C@@H](CC(C)C)C(=O)N[C@H](C(=O)O)C(C)C (H-YIYNREELV-OH)	3.9
